Experimental data reported in US11415579B2, “Assay for measuring a rate of reaction between a target and a ligand candidate” (Imperial College Innovations Ltd., priority 2016, dated 2022).

How the values were obtained:
Cdk2(S276C) (C177A) = biological target: T1, Cdk2(S276C) (C177A) (Homo sapiens, UniProt P24941, C177A/S276C); assay: Kinetic thiol consumption assay with Cdk2 mutant S276C; assay type: binding; parameters: key to Rate enhancement, Cdk2 S276C: rate constant with Cdk2 ÷ rate constant with model thiol (fold); conditions: additional mutation C177A; for Rate constant with Cdk2 S276C: Protein: Cdk2, cysteine position S276C, in h^-1
T1 construct: poly-histidine; made in house; host or cells: E. coli
Procedure: (§1) To wells containing 150 μL thiol (Cdk2 or model thiol) (5 μM) in degassed phosphate buffer (pH 8) was added immobilized TCEP beads (2% v/v).
(§2) After incubation of the fluorescence plates for 1 hour at room temperature, fluorescence measurements (excitation/emission of 380/470 nm) were taken on a PerkinElmer EnVision multilabel plate reader and processed with EnVision Workstation version 1.12.
(§3) Fluorescence measurements were normalized against a DMSO/thiol only control and plotted against time.
(§4) Rate constants were calculated using GraphPad software Prism version 6 by fitting a first order exponential decay to the data. The rate constant for each acrylamide with Cdk2 was divided by the rate constant for that fragment with the model thiol to provide the rate enhancement for each ligand candidate.
(§5) A further set of set of additional Cdk2 mutants were screened, all containing the C177A mutation and therefore with only one cysteine on the surface: • F80C (without the K278C mutation) • H71C • S276C • N272 • T182C • R122C • S181C
(§6) Mutations were introduced by site-directed mutagenesis and the resulting cDNA was cloned into the pRSETA bacterial expression vector to generate a poly-histidine tagged Cdk2 fusion that was purified from E. coli using standard techniques.

Cdk2(N272C) (C177A) = biological target: T2, Cdk2(N272C) (C177A) (Homo sapiens, UniProt P24941, C177A/N272C); assay: Kinetic thiol consumption assay with Cdk2 mutant N272C; assay type: binding; parameters: key to Rate enhancement, Cdk2 N272: rate constant with Cdk2 ÷ rate constant with model thiol (fold); conditions: for Rate enhancement, Cdk2 N272: Cdk2 N272, additional mutation C177A; for Rate constant with Cdk2 N272C: Protein: Cdk2, cysteine position N272C, additional mutation C177A, in h^-1
T2 construct: poly-histidine; made in house; host or cells: E. coli
Procedure: as §1, §2, §3, §4, §5, §6

Cdk2(C177A, F80C) = biological target: T3, Cdk2(C177A, F80C) (Homo sapiens, UniProt P24941, C177A/F80C); assay: Kinetic thiol consumption assay with Cdk2 mutant F80C, incl. kobs versus concentration (Kd, k2); assay type: binding; parameters: key to Rate enhancement, Cdk2 F80C: Cdk2 rate constant divided by model-thiol rate constant; conditions: additional mutation C177A; for Rate constant with Cdk2 F80C: Protein: Cdk2, cysteine position F80C, in h^-1
T3 construct: poly-histidine; made in house; host or cells: E. coli
Procedure: Therefore the assay can be used to calculate both k2 and Kd by experimentally determining kobs at a suitable range of ligand candidate concentrations. Typically Kd and k2 would then be determined by fitting a hyperbolic curve to a plot of kobs against ligand candidate concentration (FIG. 9).
as §1, §2, §3, §4, §5, §6
Rate constants were calculated as described in the methodology section of Examples 1 and 2.

Cdk2(T182C) (C177A) = biological target: T4, Cdk2(T182C) (C177A) (Homo sapiens, UniProt P24941, C177A/T182C); assay: Kinetic thiol consumption assay with Cdk2 mutant T182C; assay type: binding; parameters: key to Rate enhancement, Cdk2 T182C: rate constant with Cdk2 ÷ rate constant with model thiol (fold); conditions: additional mutation C177A; for Rate constant with Cdk2 T182C: Protein: Cdk2, cysteine position T182C, in h^-1
T4 construct: poly-histidine; made in house; host or cells: E. coli
Procedure: as §1, §2, §3, §4, §5, §6

[1] = biological target: T5, human cyclin-dependent kinase 2 (Cdk2) (Homo sapiens, UniProt P24941); assay: Kinetic thiol consumption assay with wild type Cdk2 (C177); assay type: binding; parameters: key to Rate enhancement, Cdk2 WT: k(Cdk2) divided by k(model thiol); Rate constant with Cdk2 (k(Cdk2)): unit not given here; conditions: for Rate constant with Cdk2 (k(Cdk2)): 500 μM ligand, 5 μM thiol, phosphate buffer pH 8; for Rate enhancement, Cdk2 WT: no additional mutations; for Rate constant with Cdk2 WT: Protein: Cdk2, cysteine position WT, in h^-1; for k(Cdk2)/k(GSH) rate enhancement: model thiol glutathione
T5 construct: poly-histidine; made in house; host or cells: E. coli
Procedure: (§7) A library of 120 acrylamides was screened against a) human cyclin-dependent kinase 2 (Cdk2, which contains one surface exposed cysteine residue—C177), prepared by cloning cDNA into the pRSETA bacterial expression vector to generate a poly-histidine tagged Cdk2 fusion that was purified from E. coli using standard techniques, and b) a model thiol (specific details are given below). The structures of these 120 acrylamides are set out in Table 1, above.
as §1, §2, §3, §4

Cdk2(S181C) (C177A) = biological target: T6, Cdk2(S181C) (C177A) (Homo sapiens, UniProt P24941, C177A/S181C); assay: Kinetic thiol consumption assay with Cdk2 mutant S181C; assay type: binding; parameters: key to Rate enhancement, Cdk2 S181C: rate constant with Cdk2 ÷ rate constant with model thiol (fold); conditions: additional mutation C177A; for Rate constant with Cdk2 S181C: Protein: Cdk2, cysteine position S181C, in h^-1
T6 construct: poly-histidine; made in house; host or cells: E. coli
Procedure: as §1, §2, §3, §4, §5, §6

Cdk2(H71C) (C177A) = biological target: T7, Cdk2(H71C) (C177A) (Homo sapiens, UniProt P24941, C177A/H71C); assay: Kinetic thiol consumption assay with Cdk2 mutant H71C; assay type: binding; parameters: key to Rate enhancement, Cdk2 H71C: rate constant with Cdk2 ÷ rate constant with model thiol (fold); conditions: additional mutation C177A; for Rate constant with Cdk2 H71C: Protein: Cdk2, cysteine position H71C, in h^-1
T7 construct: poly-histidine; made in house; host or cells: E. coli
Procedure: as §1, §2, §3, §4, §5, §6

Cdk2(R122C) (C177A) = biological target: T8, Cdk2(R122C) (C177A) (Homo sapiens, UniProt P24941, C177A/R122C); assay: Kinetic thiol consumption assay with Cdk2 mutant R122C; assay type: binding; parameters: key to Rate enhancement, Cdk2 R122C: rate constant with Cdk2 ÷ rate constant with model thiol (fold); conditions: additional mutation C177A; for Rate constant with Cdk2 R122C: Protein: Cdk2, cysteine position R122C, in h-1
T8 construct: poly-histidine; made in house; host or cells: E. coli
Procedure: as §1, §2, §3, §4, §5, §6

[2] = Kinetic thiol consumption assay with model thiol glutathione; assay type: physicochemical; parameters: Rate constant with glutathione (k(GSH)): unit not given here; conditions: for Rate constant with glutathione (k(GSH)): 500 μM ligand, 5 μM thiol, phosphate buffer pH 8; for Rate constant with Glutathione: Protein: Glutathione, cysteine position NA, in h-1
Procedure: as §7, §1, §2, §3, §4
The model thiol in Example 1 is glutathione (GSH). Hits were defined as fragments where kCdk2/kGSH>5.8 (empirically determined as 3 standard deviations over the mean).

| Rate enhancement, Cdk2 S276C (Cdk2(S276C) (C177A)) | Rate constant with Cdk2 S276C (Cdk2(S276C) (C177A)) | Rate enhancement, Cdk2 N272 (Cdk2(N272C) (C177A)) | Rate constant with Cdk2 N272C (Cdk2(N272C) (C177A)) | Rate enhancement, Cdk2 F80C (Cdk2(C177A, F80C)) | Rate constant with Cdk2 F80C (Cdk2(C177A, F80C)) | Rate enhancement, Cdk2 T182C (Cdk2(T182C) (C177A)) | Rate constant with Cdk2 T182C (Cdk2(T182C) (C177A)) | Rate constant with Cdk2 (k(Cdk2)) [1] | Rate enhancement, Cdk2 WT [1] | Rate constant with Cdk2 WT [1] | k(Cdk2)/k(GSH) rate enhancement [1] | Rate enhancement, Cdk2 S181C (Cdk2(S181C) (C177A)) | Rate constant with Cdk2 S181C (Cdk2(S181C) (C177A)) | Rate enhancement, Cdk2 H71C (Cdk2(H71C) (C177A)) | Rate constant with Cdk2 H71C (Cdk2(H71C) (C177A)) | Rate enhancement, Cdk2 R122C (Cdk2(R122C) (C177A)) | Rate constant with Cdk2 R122C (Cdk2(R122C) (C177A)) | SMILES | Rate constant with glutathione (k(GSH)) [2] | Rate constant with Glutathione [2] |
| --- | --- | --- | --- | --- | --- | --- | --- | --- | --- | --- | --- | --- | --- | --- | --- | --- | --- | --- | --- | --- |
| 68.22 | 0.5651 | 87.21 | 0.7224 | 0.165 | 0.001367 | 10.22 | 0.08469 | 0.00288 | 1.257 | 0.01041 | 0.7234 | 0.9237 | 0.007651 | 1.058 | 0.008761 | 0.376 | 0.003114 | C=CC(=O)N(Cc1ccco1)C12CC3CC(CC(C3)C1)C2 [CA-157] | 0.00399 | 0.008283 |
| 0.7322 | 0.006194 | 0.3045 | 0.002576 | 0.4785 | 0.004048 | 6.465 | 0.05469 | 0.00508 | 1.059 | 0.00896 | 0.9957 | 0.6457 | 0.005463 | 35.53 | 0.3006 | 0.319 | 0.002699 | C=CC(=O)N1CCCC1CC1CC2CCC1C2 (centres unmarked) [CA-087] | 0.0051 | 0.00846 |
| 2.266 | 0.481 | 2.393 | 0.5081 | 0.1651 | 0.03506 | 2.038 | 0.4326 | – | 1.366 | 0.2899 | – | 1.479 | 0.314 | 0.2907 | 0.06172 | 2.423 | 0.5145 | C=CC(=O)N(Cc1ccco1)Cc1ccco1 [CA-099/153] | – | 0.2123 |
| 0.9396 | 0.007277 | 0.3769 | 0.002919 | 0.1028 | 0.0007964 | 2.003 | 0.01551 | 0.0023 | 0.2968 | 0.002299 | 0.4376 | 1.139 | 0.008821 | 0.1944 | 0.001506 | 0.6918 | 0.005358 | C=CC(=O)N1CCN(Cc2noc(C3CC3)n2)CC1 [CA-091] | 0.00525 | 0.007745 |
| 1.682 | 0.01838 | 0.3936 | 0.004302 | 0.1819 | 0.001988 | 0.8826 | 0.009647 | – | 0.2508 | 0.002741 | – | 0.2227 | 0.002434 | 0.03271 | 0.0003575 | 0.925 | 0.01011 | C=CC(=O)N1CCC2(CC1)NC(=O)C1(CCCCC1)N2 [CA-129/235] | – | 0.01093 |
| 7.411 | 0.01732 | 3.276 | 0.007657 | 4.621 | 0.0108 | 8.314 | 0.01943 | – | 7.599 | 0.01776 | – | 9.936 | 0.02322 | 0.9042 | 0.002113 | 0.7099 | 0.001659 | C=CC(=O)N(C1CC1)C1CCCCC1C1CCCCC1 (centres unmarked) [CA-081/240] | – | 0.002337 |
| 4.615 | 1.689 | 0.243 | 0.08895 | 0.01666 | 0.006096 | 0 | – | – | 4.361 | 1.596 | – | 0.08978 | 0.03286 | 0.3522 | 0.1289 | 0.1248 | 0.04566 | O=C(CCl)N1CCSc2ccccc21 [EN004] | – | 0.366 |
| 13.55 | 0.03433 | 0 | – | 0.8693 | 0.002202 | 11.33 | 0.02869 | – | 6.167 | 0.01562 | – | 5.886 | 0.01491 | 0.852 | 0.002158 | 0.5681 | 0.001439 | O=C(CCl)NCCc1c[nH]c2ccccc12 [EN005] | – | 0.002533 |
